Test results from patent US20240091267A1, “PRE-TREATMENT OF MSC WITH PPARB/DELTA AGONIST FOR TREATMENT OF ISCHEMIA-REPERFUSION INJURY” (Universite de Montpellier, priority 2020, published 2024).
Where two headings read alike, the source gives them in different places.

What was measured:
[1] = test system: isolated perfused hearts from C57B16 mice; assay: Ex vivo Langendorff ischemia-reperfusion, infarct size, effect of preconditioning duration (Example 3); set-up: species or system mouse (C57BL/6); settings: 4.10^5 cells/heart; for Decrease in infarct size: vs IR
[2] = 3 mg/kg/day, mice; cited from earlier work
[3] = test system: cardiomyoblast cell line H9c2; settings: H9c2 cardiomyoblasts; cited from earlier work
[4] = 3 mg/kg/day, rats; cited from earlier work
H9c2 cardiomyocytes = assay: Transwell co-culture of MSC with H9c2 exposed to H2O2, specific DNA fragmentation in H9c2; type: cell-based, rattus norvegicus; settings: vs naive MSC
Procedure: FIG. 7: Increased anti-apoptotic effects of PPARβ/δ-primed MSC on cardiomyocytes. (A) After 24 hours of MSC pharmacological preconditioning using PPARβ/δ agonist, cells were co-cultured using transwells (upper chamber) with H9c2 (lower chamber). Both cultures were exposed to 4 hours of 350 μM of H2O2 in minimal medium (serum deprivation). At the end of the protocol, specific DNA fragmentation was quantified in H9c2 cells and values were compared with those obtained for co-cultures with naive MSC or MSC pre-treated with PPARβ/δ antagonists (GSK0660 or GSK03787) and exposed to 350 H2O2μM (B, C, D) Scatter dot plot and bars were presented for specific DNA fragmentation quantified in H9c2 at the end of the protocols. Data (mean±SD for each group of treatment) were normalized by values obtained with naive MSC/H2O2 and compared using Kruskal-Wallis (Dunn's post hoc test). (B): data were obtained using the condition 1 protocol. (C): the condition 2 protocol P was followed and p value was noted **** for p<0.0001 (MSC, n=16 independent cultures vs MSC/H2O2, n=18). For the data obtained with condition 3 protocol (D), p value was noted * for p=0.0436 (MSC+1 μM GSK0660/H2O2, n=6 vs MSC/H2O2, n=10).
H9c2, rattus norvegicus cardiomyocytes, were cultured in Dulbecco's modified Eagle's medium (DMEM), supplemented with 10% fetal bovine serum (FBS), 100 Units/mL penicillin, and 100 μg/mL streptomycin. To induce apoptosis, H9c2 were cultured in a minimal medium (without FBS) containing 350 μM of H2O2 during 4 hours. In order to evaluate the effect of MSCs on cardiomyocytes, a co-culture assay was designed using the transwell system to avoid cell-cell contact. 15,000 cardiomyocytes (lower part) were plated per well of a 12-well dish with or 15,000 MSC (upper part) in presence of 350 OA of H2O2. Two different protocols of co-culture were performed. In protocol 1, H9c2 and co-cultured MSC were exposed to H2O2(with serum deprivation). In protocol 2, H9c2 were exposed to H2O2 in minimal medium during 4 hours and after a wash, cells were co-cultured in complete medium with MSC. In protocol 3, H9c2 were cultured in presence of H2O2 during 4 hours in regular medium deprived in serum, which was continued for an extra 1 hour. Then the co-culture of H9c2 with MSC was performed in complete medium for 1 hour. At the end of all protocols, H9c2 were recovered for apoptosis and RT-qPCR analysis.
DNA fragmentation was quantified in vitro on cell lysates with an enzyme-linked immunosorbent assay kit (Cell Death ELISA; Roche Diagnostics) designed to measure of histone-complexed DNA fragments (mono- and oligonucleosomes) out of the cytoplasm of cells after the induction of apoptosis.
To determine the role of PPARβ/δ on MSC-induced protective effect on cardiomyocytes we designed and developed three protocols in order to mimic the stress received by MSC when transplanted into infarcted tissues. The first protocol consisted in co-culturing naive or primed MSC with H9c2 exposed to 350 μM of H2O2 for 4 hours using transwell. The second protocol consisted in exposing […] μM of H2O2 for 4 hours before to co-culture them with naive or primed MSC in a complete medium. The third protocol consisted in exposing H9c2 to 350 μM of H2O2 for 4 hours followed by serum deprivation for 1 hour before to co-culture them with naive or primed MSC in a complete medium (FIG. 7A).

Row | Structure (SMILES) | Infarct size, mean value ([1]; MSC preconditioned 24 h (1-day) with 0.1 μM, n=7) | Decrease in infarct size ([1]; MSC preconditioned 24 h with 0.1 μM) [%] | Decrease in infarct size ([1]; MSC preconditioned 4 days (96 h) with 0.1 μM) [%] | Infarct size, mean value ([1]; MSC preconditioned 4 days with 0.1 μM, n=8) [%] | Carcinogenicity [2] | Protection from H2O2-induced cell death [3] | Carcinogenicity [4] | Specific DNA fragmentation in H9c2 (anti-apoptotic effect of MSC) (H9c2 cardiomyocytes; protocol 1: MSC pretreated 24 h with 1 μM, co-cultured with H9c2 under 350 μM H2O2 4 h) | Specific DNA fragmentation in H9c2 (anti-apoptotic effect of MSC) (H9c2 cardiomyocytes; protocol 2: H9c2 exposed to 350 μM H2O2 4 h, then co-culture in complete medium with MSC pretreated with 1 μM) | Specific DNA fragmentation in H9c2 (anti-apoptotic effect of MSC) (H9c2 cardiomyocytes; protocol 3: H9c2 350 μM H2O2 4 h, serum deprivation 1 h, then co-culture in complete medium with MSC pretreated with 1 μM)
1 | Cc1cc(SCc2sc(-c3ccc(C(F)(F)F)cc3)nc2C)ccc1OCC(=O)O [GW501516] | 37.4 % of LV mass | 52.8 | 54.5 | 36.05 | caused cancer to develop rapidly in several organs | protect the cardiomyoblast cell line H9c2 from H2O2-induced cell death | caused cancer to develop rapidly in several organs |  |  | 
2 | O=C(NCCS(=O)(=O)c1ccc(C(F)(F)F)cn1)c1ccc(Cl)cc1 [GSK3787] |  |  |  |  |  |  |  | lose their capacity to protect cardiomyocytes from apoptosis | did not change MSC protective properties | lose their capacity to protect cardiomyocytes from apoptosis
